What was measured:
mice = assay: Toxicity, intraperitoneal injection in mice; assay type: in vivo; settings: 10 mice, about 45 g/kg, one month
Excerpt: (§1) Beyond radiopacity and stability, the compounds used in the present invention are biocompatible. They are tolerated in high doses in animals. For example, in intraperitoneal administration in mice, the mice were still alive at the end of the protocol, one month post injection, even after doses of up to 45 g/kg of the iodinated fluorinated compounds used in the present invention had been injected. Further, in intravenous administration to mice of the compounds used in the present invention in emulsified form, the mice lived past the end of the protocol, one month post injection of doses up to 8 g/kg.
(§2) In order to determine the toxicity of Compound IA, we injected mice intraperitoneally with the compound. In the experiment, 10 mice were interperitoneally injected with a dose of about 45 g/kg per animal of Compound IA.
(§3) Compound IIIA was also tested for toxicity, following the procedure described in Example 2. A similar tolerance of greater than 45 g/kg animal weight was observed.
(§4) Each of the composition were intraperitoneally injected into mice at doses of 50 g/kg. All of the mice so injected survived and were alive past the end of the protocol, 30 days post injection.

[1] = In vitro opacity to X-rays of compounds in hexane solution (Philips Tomoscan LX); assay type: physicochemical; settings: 0.34 mol/L in hexane; 120 kV, 175 mA
Procedure: In order to determine the relative radiopacity of the compounds used in the present invention to X-rays, we undertook an in vitro study to compare the radiopacity of the above compound (IA) in relation to the radiopacity of perfluorooctyl bromide.
A solution of Compound IA was prepared having a concentration of 0.34 mol/L in hexane. A second solution of perfluorooctyl bromide (PFOB) with the same concentration in hexane was also prepared. The opacity to X-rays of the respective compounds in the hexane solutions was determined using a Philips Tomoscan LX 120 kV, 175 mA apparatus.
Following the procedure described in Example 1, we also measured the opacity to X-rays of Compound IIIA. As described, a solution of Compound IIIA was prepared at a concentration of 0.34 mol/L in hexane.
We also measured the radiopacity of each of the compositions using the in vitro test described in Example 1, where 0.34 mol/L solutions of the compositions were prepared in hexane and scanned using a Philips Tomoscan LX 120 kV, 175 mA apparatus.

liver = assay: In vivo radiopacity, rabbit liver imaging; design: species or system rabbits; settings: 0.39 g of Compound IA
Procedure: In order to determine the ability of the compositions of the present invention to operate as effective contrast enhancement agents, we undertook an in vivo study in rabbits to image their livers.
In the study, 3 rabbits were injected with the emulsion of Example 5 at a dose of 3 mL of emulsion per kg of animal, i.e., 2.34 g/kg (4.2 mM of Compound IA), at the rate of 0.5 mL/min.
The radiopacity of the liver and spleen of each rabbit was then measured. The animals were held in a cage and radiopacity was measured using a Philips Tomoscan LX scanner at 120 kV and 175 mA, with continuous 5 mm scans slice with 7 mm intervals. The duration of each scan was 1.2 seconds. These measurements were taken before the injection, then at 24 hours, 48 hours, 7 days, 15 days, and 30 days after the injection.
The results from this study are shown in FIG. 2, which is a bar graph showing the comparison between the radiopacity of the liver (as determined by the increase in Hounsfield units) observed with the emulsion of Example 5 and a PFOB emulsion (Example 6), at 24 hours and 48 hours after injection. The concentration of the emulsion of Example 5 was at a dose of […]. The concentration of the PFOB emulsion was at a dose of 2.7 g/kg body weight (5.4 mM of Perflubron/kg).

[2] = Toxicity, intraperitoneal injection in mice; assay type: in vivo; settings: mouse, in vivo, ip; mice, intraperitoneal, g/kg animal weight; read-out: tolerance
Excerpt: as §1, §2, §3, §4

| Structure (SMILES) | survival after intraperitoneal injection (mice) | radiopacity relative to PFOB [1] | amount of Perflubron giving equivalent contrast enhancement, relative to Compound IA (liver) | MTD [2] | opacity to X-rays (in words) [1] |
| --- | --- | --- | --- | --- | --- |
| CCCCCCC(I)=CC(F)(F)C(F)(F)C(F)(F)C(F)(F)C(F)(F)C(F)(F)F [Compound IA, C6 F13 --CH=CI--C6 H13] | all animals survived and were thriving, showing no ill effects | approximately four | 7 times |  |  |
| CCCCCCC(I)=CC(F)(F)C(F)(F)C(F)(F)C(F)(F)C(F)(F)C(F)(F)C(F)(F)C(F)(F)F [Compound IIIA, C8 F17 --CH=CI--C6 H13] |  |  |  | > 45000 mg/kg | A similar opacity was observed for Compound IIIA as was observed for Compound IA |

Reference: patent publication US5582813A, “Iodine-containing fluorocarbon contrast agents” (Alliance Pharmaceutical Corp., priority 1993, dated 1996)
